Test results: patent US9969726B2, “Metabotropic glutamate receptor negative allosteric modulators (NAMS) and uses thereof” (Sanford-Burnham Medical Research Institute, priority 2014, dated 2018)
Like-named read-outs stand apart in the source and are kept apart here.

Legend:
rat mGlu3 receptor = rat mGlu3 receptor (Rattus norvegicus (Rat), UniProt P31422); assay: mGlu3 in vitro GIRK thallium flux assay; format: cell-based; conditions: NAM; 2.5 min compound incubation; EC80 glutamate; HEK-293 GIRK cells
Method: (§1) All cell culture reagents were purchased from Invitrogen Corp. (Carlsbad, Calif.) unless otherwise noted. Compound activity at the group II (mGlu2 and mGlu3) mGlus was assessed using thallium flux through GIRK channels. Briefly, cells were plated into 384-well, black-walled, clear-bottomed poly-D-lysine-coated plates at a density of 15,000 cells/20 μL/well in DMEM containing 10% dialyzed FBS, 20 mM HEPES, and 100 units/mL penicillin/streptomycin (assay media). Plated cells were incubated overnight at 37° C. in the presence of 5% CO2. […] Cells were incubated for 1 h at room temperature, and the dye exchanged to assay buffer using an ELX405, leaving 20 μL/well. Test compounds were diluted to 2 times their final desired concentration in assay buffer (0.3% DMSO final concentration). […] Cell plates and compound plates were loaded onto a kinetic imaging plate reader (FDSS 6000 or 7000; Hamamatsu Corporation, Bridgewater, N.J.). Appropriate baseline readings were taken (10 images at 1 Hz; excitation, 470±20 nm; emission, 540±30 nm) and test compounds were added in a 20 μL volume and incubated for either 2.5 min or 60 min as indicated before the addition of 10 μL of thallium buffer with or without agonist. After the addition of agonist, data were collected for approximately an additional 2.5 min. Data were analyzed using Excel (Microsoft Corp, Redmond, Wash.). The slope of the fluorescence increase beginning 5 s after thallium/agonist addition and ending 15 s after thallium/agonist addition was calculated, corrected to vehicle and maximal agonist control slope values, and plotted in using either XLfit (ID Business Solutions Ltd) or Prism software (GraphPad Software, San Diego, Calif.) to generate concentration-response curves. Potencies were calculated from fits using a four-point parameter logistic equation. For concentration-response curve experiments, compounds were serially diluted 1:3 into 10 point concentration response curves and were transferred to daughter plates using an Echo acoustic plate reformatter (Labcyte, Sunnyvale, Calif.). Test compounds were applied and followed by EC80 concentrations of glutamate.

rat mGlu2 receptor = rat mGlu2 receptor (Rattus norvegicus (Rat), UniProt P31421); assay: mGlu2 in vitro GIRK thallium flux assay; format: cell-based; conditions: NAM, EC80 glutamate, HEK-293 GIRK cells
Method: as §1

[1] = 2.5 min compound incubation, read-out: mGlu2 EC50 (μM) (2.5 min)
[2] = mGlu2 EC50 (μM) (60 min), 60 min compound incubation
[3] = read-out: mGlu2 EC50 (μM) (60 min), 60 min compound incubation

Sequence of rat mGlu2 receptor (P31421 19-872): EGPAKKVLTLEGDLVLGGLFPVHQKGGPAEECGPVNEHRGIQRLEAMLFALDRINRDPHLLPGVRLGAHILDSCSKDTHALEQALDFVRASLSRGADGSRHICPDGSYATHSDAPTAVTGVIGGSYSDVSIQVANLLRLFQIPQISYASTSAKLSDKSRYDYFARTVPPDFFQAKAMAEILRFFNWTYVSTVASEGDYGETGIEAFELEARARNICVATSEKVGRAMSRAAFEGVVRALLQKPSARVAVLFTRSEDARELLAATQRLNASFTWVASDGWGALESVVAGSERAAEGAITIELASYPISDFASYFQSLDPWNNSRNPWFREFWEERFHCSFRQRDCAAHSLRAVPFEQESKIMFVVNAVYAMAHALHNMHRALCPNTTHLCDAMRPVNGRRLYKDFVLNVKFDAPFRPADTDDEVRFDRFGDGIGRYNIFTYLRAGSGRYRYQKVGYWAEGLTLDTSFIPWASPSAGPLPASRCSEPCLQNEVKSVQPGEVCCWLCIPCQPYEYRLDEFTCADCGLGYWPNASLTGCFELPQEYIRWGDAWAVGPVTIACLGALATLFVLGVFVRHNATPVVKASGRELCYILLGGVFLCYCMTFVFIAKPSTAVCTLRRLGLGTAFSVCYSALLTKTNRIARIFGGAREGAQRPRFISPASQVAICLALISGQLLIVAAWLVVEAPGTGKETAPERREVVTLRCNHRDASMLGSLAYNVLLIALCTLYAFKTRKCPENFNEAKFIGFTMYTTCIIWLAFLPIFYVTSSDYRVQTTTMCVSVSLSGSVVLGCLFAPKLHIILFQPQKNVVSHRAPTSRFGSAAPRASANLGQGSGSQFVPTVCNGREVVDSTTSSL
Sequence of rat mGlu3 receptor (P31422 23-879): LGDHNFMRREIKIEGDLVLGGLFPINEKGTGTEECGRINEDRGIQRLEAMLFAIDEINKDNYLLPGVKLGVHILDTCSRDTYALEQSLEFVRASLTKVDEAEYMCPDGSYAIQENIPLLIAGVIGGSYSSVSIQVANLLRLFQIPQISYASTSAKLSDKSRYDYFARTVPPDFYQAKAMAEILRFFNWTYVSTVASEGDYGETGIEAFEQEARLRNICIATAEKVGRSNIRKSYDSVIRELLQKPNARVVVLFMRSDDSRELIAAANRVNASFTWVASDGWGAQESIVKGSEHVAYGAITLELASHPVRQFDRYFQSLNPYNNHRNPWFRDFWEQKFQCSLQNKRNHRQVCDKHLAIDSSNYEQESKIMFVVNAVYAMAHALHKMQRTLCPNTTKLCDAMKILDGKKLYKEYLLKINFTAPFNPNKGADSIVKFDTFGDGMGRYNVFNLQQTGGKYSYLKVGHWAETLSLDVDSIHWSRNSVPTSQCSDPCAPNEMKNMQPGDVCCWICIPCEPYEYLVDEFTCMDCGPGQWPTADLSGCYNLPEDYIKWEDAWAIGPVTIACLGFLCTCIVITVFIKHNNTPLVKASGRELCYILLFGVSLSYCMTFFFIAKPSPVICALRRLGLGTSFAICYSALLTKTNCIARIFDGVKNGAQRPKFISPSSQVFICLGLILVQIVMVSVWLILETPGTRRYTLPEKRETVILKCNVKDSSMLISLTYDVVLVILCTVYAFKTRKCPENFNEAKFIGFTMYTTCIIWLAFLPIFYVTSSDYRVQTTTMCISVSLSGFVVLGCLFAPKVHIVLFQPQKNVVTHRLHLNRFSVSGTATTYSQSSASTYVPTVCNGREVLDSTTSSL

EC50 (rat mGlu3 receptor) [µM] | EC50 (rat mGlu2 receptor; [1]) [µM] | EC50 (rat mGlu2 receptor; [2]) [µM] | SMILES | EC50 (rat mGlu2 receptor; [3]) [µM]
> 10 | 1.5 | 0.93 | O=C(O)c1cc(-c2cccc(-c3csc(-c4cccs4)n3)c2)ccc1F [Example 15, 4-Fluoro-3′-(2-(thiophen-2-yl)thiazol-4-yl)biphenyl-3-carboxylic Acid] | 
> 10 | > 10 | > 10 | O=C(O)c1cc(-c2cccc(-c3csc(-c4ccccc4)c3)c2)ccc1F [Example 45, 4-Fluoro-3′-(5-phenylthiophen-3-yl)-[1,1′-biphenyl]-3-carboxylic Acid] | 
 |  |  | O=C1CC(c2cccc(Br)c2)=Nc2ccc(NC(=O)OCc3ccccc3)cc2N1 [Example 157, Benzyl (4-(3-bromophenyl)-2-oxo-2,3-dihydro-1H-benzo[b][1,4]diazepin-8-yl)carbamate] | > 10
> 10 | 1.81 | 1.35 | COc1ccc(C(=O)O)cc1-c1cccc(-c2csc(-c3ccccc3)n2)c1 [Example 23, 6-Methoxy-3′-(2-phenylthiazol-4-yl)biphenyl-3-carboxylic Acid] | 
2.93 | > 10 | 2.36 | Cc1cc2c(cc1C(F)(F)F)NC(=O)CC(c1cccc(OCc3ccccc3)c1)=N2 [Example 144, 4-(3-(Benzyloxy)phenyl)-7-methyl-8-(trifluoromethyl)-1H-benzo[b][1,4]diazepin-2(3H)-one] | 
2.96 | > 10 | 6.58 | COc1ccc(-n2nc(-c3cccc(-c4cccc(C(=O)O)c4)c3)nc2-c2ccccc2)cc1 [Example 55, 3′-(1-(4-Methoxyphenyl)-5-phenyl-1H-1,2,4-triazol-3-yl)-[1,1′-biphenyl]-3-carboxylic Acid] | 
 |  |  | O=c1[nH]c(-c2cc(-c3cccc(-c4nc(-c5ccoc5)cc(C(F)(F)F)n4)c3)ccc2F)no1 [Example 133, 3-(4-Fluoro-3′-(4-(furan-3-yl)-6-(trifluoromethyl)pyrimidin-2-yl)-[1,1′-biphenyl]-3-yl)-1,2,4-oxadiazol-5(4H)-one] | 0.73
 |  | 4.47 | C#Cc1cccc(C2CC(=O)Nc3cc(C(F)(F)F)c(C)cc3N2)c1 (single isomer, unassigned) [Example 175B, 4-(3-Ethynylphenyl)-7-methyl-8-(trifluoromethyl)-4,5-dihydro-1H-benzo[b][1,4]diazepin-2(3H)-one] | 
 |  |  | O=c1[nH]c(-c2cc(-c3cccc(-c4nc(-c5ccoc5)cc(C(F)(F)F)n4)c3)ccc2F)ns1 [Example 135, 3-(4-Fluoro-3′-(4-(furan-3-yl)-6-(trifluoromethyl)pyrimidin-2-yl)-[1,1′-biphenyl]-3-yl)-1,2,4-thiadiazol-5(4H)-one] | > 10
 |  | > 10 | COC(=O)c1cccc(C2CC(=O)Nc3cc(C(F)(F)F)c(C)cc3N2)c1 (racemic) [Example 151, (±)-Methyl 3-(8-methyl-4-oxo-7-(trifluoromethyl)-2,3,4,5-tetrahydro-1H-benzo[b][1,4]diazepin-2-yl)benzoate] | 
 |  |  | Fc1ccc(-c2cccc(-c3nc(-c4ccoc4)cc(C(F)(F)F)n3)c2)cc1-c1noc(=S)[nH]1 [Example 134, 3-(4-Fluoro-3′-(4-(furan-3-yl)-6-(trifluoromethyl)pyrimidin-2-yl)-[1,1′-biphenyl]-3-yl)-1,2,4-oxadiazole-5(4H)-thione] | > 10
 |  |  | Cc1cc2c(cc1C(F)(F)F)NC(=O)CC(c1cccc(Nc3ccccn3)c1)=N2 [Example 141, 7-Methyl-4-(3-(pyridin-2-ylamino)phenyl)-8-(trifluoromethyl)-1H-benzo[b][1,4]diazepin-2(3H)-one] | > 10
 |  | > 10 | Cc1cc2c(cc1C(F)(F)F)NC(=O)CC(c1cccc(C(N)=O)c1)N2 (single isomer, unassigned) [Example 168A, 3-(8-Methyl-4-oxo-7-(trifluoromethyl)-2,3,4,5-tetrahydro-1H-benzo[b][1,4]diazepin-2-yl)benzamide] | 
 |  | > 10 | Cc1cc2c(cc1C(F)(F)F)NC(=O)CC(c1cccc(CCC(=O)O)c1)N2 (single isomer, unassigned) [Example 155B, 3-(3-(8-methyl-4-oxo-7-(trifluoromethyl)-2,3,4,5-tetrahydro-1H-benzo[b][1,4]diazepin-2-yl)phenyl)propanoic acid] | 
 |  |  | Fc1ccc(-c2cccc(-c3nc(-c4ccc(C(F)(F)F)nc4)cc(C(F)(F)F)n3)c2)cc1-c1nn[nH]n1 [Example 124, 2-(4′-Fluoro-3′-(2H-tetrazol-5-yl)-[1,1′-biphenyl]-3-yl)-4-(trifluoromethyl)-6-(6-(trifluoromethyl)pyridin-3-yl)pyrimidine] | 1.29
 |  |  | Cc1cc2c(cc1C(F)(F)F)NC(=O)CC(c1cccc(Oc3cc(F)cc(F)c3)c1)N2 (single isomer, unassigned) [Example 174B, 4-(3-(3,5-Difluorophenoxy)phenyl)-7-methyl-8-(trifluoromethyl)-4,5-dihydro-1H-benzo[b][1,4]diazepin-2(3H)-one] | > 10
 |  |  | CCOC(=O)/C=C/c1cccc(C2=Nc3cc(C)c(C(F)(F)F)cc3NC(=O)C2)c1 [Example 152, Ethyl 3-(3-((E)-7-methyl-2-oxo-8-(trifluoromethyl)-2,3-dihydro-1H-benzo[b][1,4]diazepin-4-yl)phenyl)acrylate] | 3.26
 |  | > 30 | N#Cc1cccc(C2CC(=O)Nc3cc(C(=O)O)ccc3N2)c1 (racemic) [Example 161, 2-(3-Cyanophenyl)-4-oxo-2,3,4,5-tetrahydro-1H-benzo[b][1,4]diazepine-7-carboxylic Acid] | 
 |  |  | Cc1cccc(C#Cc2cccc(C3=Nc4cc(C)c(C(F)(F)F)cc4NC(=O)C3)c2)n1 [Example 138, 7-Methyl-4-(3-((6-methylpyridin-2-yl)ethynyl)phenyl)-8-(trifluoromethyl)-1H-benzo[b][1,4]diazepin-2 (3H)-one] | > 10
 |  | > 10 | Cc1cc2c(cc1C(F)(F)F)NC(=O)CC(c1cccc(-n3ccc4ccccc43)c1)N2 (racemic) [Example 167B, 4-(3-(1H-Indol-1-yl)phenyl)-7-methyl-8-(trifluoromethyl)-4,5-dihydro-1H-benzo[b][1,4]diazepin-2(3H)-one] | 

SMILES | EC50 (rat mGlu3 receptor) [µM] | EC50 (rat mGlu2 receptor; [1]) [µM] | EC50 (rat mGlu2 receptor; [2]) [µM] | EC50 (rat mGlu2 receptor; [3]) [µM]
O=C(NO)c1cc(-c2cccc(-c3nc(-c4ccoc4)cc(C(F)(F)F)n3)c2)ccc1F [Example 131, 4-Fluoro-3′-(4-(furan-3-yl)-6-(trifluoromethyl)pyrimidin-2-yl)-N-hydroxy-[1,1′-biphenyl]-3-carboxamide] | > 10 | > 10 |  | 3.36
N#Cc1cc(C2=Nc3ccc(Cl)cc3NC(=O)C2)ccn1 [Example 181, 4-(8-Chloro-2-oxo-2,3-dihydro-1H-benzo[b][1,4]diazepin-4-yl)picolinonitrile] | > 10 | > 10 |  | 
O=C(O)c1ccc(-c2cccc(-c3nc(-c4ccc(C(F)(F)F)nc4)cc(C(F)(F)F)n3)c2)cc1Cl [Example 74, 3-Chloro-3′-(4-(trifluoromethyl)-6-(6-(trifluoromethyl)pyridin-3-yl)pyrimidin-2-yl)biphenyl-4-carboxylic Acid] | 6.52 | 6.76 |  | > 10
O=C(O)c1ccccc1-c1cccc(-c2nc(-c3ccccc3)n(-c3ccccc3)n2)c1 [Example 61, 3′-(1,5-Diphenyl-1H-1,2,4-triazol-3-yl)-[1,1′-biphenyl]-2-carboxylic Acid] | > 10 | > 30 |  | > 30
N#Cc1cc(C2CC(=O)Nc3cc(C(=O)O)ccc3N2)ccn1 (racemic) [Example 160, 2-(2-Cyanopyridin-4-yl)-4-oxo-2,3,4,5-tetrahydro-1H-benzo[b][1,4]diazepine-7-carboxylic Acid] |  |  | > 30 | 
C#CCNC(=O)c1cccc(C2CC(=O)Nc3cc(C(F)(F)F)c(C)cc3N2)c1 (racemic) [Example 170B, 3-(8-Methyl-4-oxo-7-(trifluoromethyl)-2,3,4,5-tetrahydro-1H-benzo[b][1,4]diazepin-2-yl)-N-(prop-2-yn-1-yl)benzamide] |  |  | 3.68 | 
Cc1cc2c(cc1C(F)(F)F)NC(=O)CC(c1cccc(OCc3ccccc3)c1)N2 (racemic) [Example 178, 4-(3-(Benzyloxy)phenyl)-7-methyl-8-(trifluoromethyl)-4,5-dihydro-1H-benzo[b][1,4]diazepin-2(3H)-one] |  |  | > 10 | 
O=C1CC(c2cccc(Br)c2)Nc2ccc(NC(=O)OCc3ccccc3)cc2N1 (racemic) [Example 158, Benzyl (2-(3-bromophenyl)-4-oxo-2,3,4,5-tetrahydro-1H-benzo[b][1,4]diazepin-7-yl)carbamate] |  |  | > 10 | 
